{"source": "patent US20170354592A1", "about": "(ASCENDIA PHARMACEUTICALS, LLC, priority 2016, published 2017)", "key": {"β-adrenoceptor": {"tested_on": "β-adrenoceptor", "details": "cited from earlier work; for potency as a β-adrenoceptor antagonist versus Carvedilol: relative to carvedilol, Hoffman (2001), Tenero et al (2000)"}, "[1]": {"assay": "Single IV injection of carvedilol liposomes and free-carvedilol solution, plasma PK", "details": "rats, single iv 2.5 mg/kg", "procedure": "(§1) 15 cannulated and non-cannulated, 9 and 6 rats respectively, Sprague-Dawley® male rats were divided into 3 groups. […] Treatment was administered intravenously. During the experiment, rats were inspected twice daily for vitality and as needed after dosing and intermittently and vitals, including blood pressure, heart rate, and temperature, were recorded from the non-cannulated animals. Main vital signs were monitored prior to and at multiple time points after dose administration. Blood pressure and heart rate were measured using a non-invasive tail cuff system after a brief acclimation period. Blood samples (approximately 300-325 μL each) were collected from cannulated rats at each time point into tubes containing K2EDTA.\n(§2) Following centrifugation at 4° C., the plasma was collected and stored at −80° C. The blood sampling time points were as follows: prior to (PRE) and approximately 0.25, 0.5, 1, 2, 3, 8, 10 and 24 hours after dose administration. Samples were collected via Jugular Vein Cannulas."}, "[2]": {"details": "cited from earlier work"}, "[3]": {"assay": "Vital signs and adverse reactions after IV dose (non-invasive tail cuff)", "details": "rats iv 2.5 mg/kg", "procedure": "as §1, §2"}}, "data": [{"compound": "COc1ccc(O)cc1OCCNCC(O)COc1cccc2[nH]c3ccccc3c12", "note": "(stereo not shown) [5-hydroxyphenyl-carvedilol]", "values": [{"measurement": "potency as a β-adrenoceptor antagonist versus Carvedilol", "setting": "β-adrenoceptor", "value": "one-half"}]}, {"compound": "COc1cc(O)ccc1OCCNCC(O)COc1cccc2[nH]c3ccccc3c12", "note": "(stereo not shown) [4-hydroxyphenyl-carvedilol]", "values": [{"measurement": "potency in β-blockade versus the parent compound", "setting": "β-adrenoceptor; more potent than carvedilol", "value": "about 13 fold"}, {"measurement": "potency as a β-adrenoceptor antagonist versus Carvedilol", "setting": "β-adrenoceptor", "value": "about 13 times"}]}, {"compound": "(±)-[3-(9H-carbazol-4-yloxy)-2-hydroxypropyl][2-(2-ethoxyphenoxy)ethyl] amine [Carvedilol]", "values": [{"measurement": "time after dose at which carvedilol was cleared from plasma", "setting": "[1]; FIG. 3", "value": 3, "unit": "h"}, {"measurement": "AUC(0-T)", "setting": "[1]; mean", "value": 284, "unit": "ng·h/mL"}, {"measurement": "AUC(INF)", "setting": "[1]; mean", "value": 291, "unit": "ng·h/mL"}, {"measurement": "CL", "setting": "[1]; mean", "value": 144.0, "unit": "mL/min/kg"}, {"measurement": "Cmax", "setting": "[1]; mean", "value": 354, "unit": "ng/mL"}, {"measurement": "T-HALF", "setting": "[1]; mean", "value": 0.52, "unit": "h"}, {"measurement": "Tmax", "setting": "[1]; mean", "value": 15, "unit": "min"}, {"measurement": "Vss", "setting": "[1]; mean", "value": 6.4, "unit": "L/kg"}, {"measurement": "pKa", "setting": "[2]", "value": 7.8}, {"measurement": "Diastolic", "setting": "[3]; 1 Hour after dose", "value": 40}, {"measurement": "HR", "setting": "[3]; 1 Hour after dose", "value": 363, "unit": "Beats/min"}, {"measurement": "MAP", "setting": "[3]; 1 Hour after dose", "value": 69}, {"measurement": "Temp", "setting": "[3]; 1 Hour after dose", "value": 99, "unit": "° F."}, {"measurement": "Diastolic", "setting": "[3]; 15 min after dose", "value": 48}, {"measurement": "HR", "setting": "[3]; 15 min after dose", "value": 354, "unit": "Beats/min"}, {"measurement": "MAP", "setting": "[3]; 15 min after dose", "value": 73}, {"measurement": "Temp", "setting": "[3]; 15 min after dose", "value": 98, "unit": "° F."}, {"measurement": "Diastolic", "setting": "[3]; 30 min after dose", "value": 33}, {"measurement": "HR", "setting": "[3]; 30 min after dose", "value": 360, "unit": "Beats/min"}, {"measurement": "MAP", "setting": "[3]; 30 min after dose", "value": 60}, {"measurement": "Temp", "setting": "[3]; 30 min after dose", "value": 99, "unit": "° F."}]}, {"compound": "Oc1ccccc1OCCNCC(O)COc1cccc2[nH]c3ccccc3c12", "note": "(stereo not shown) [desmethylcarvedilol]", "values": [{"measurement": "potency as a β-adrenoceptor antagonist versus Carvedilol", "setting": "β-adrenoceptor", "value": "approximately 2.5 times"}]}]}
